Test results published in the NIST ThermoML archive (doi:10.1021/je034162x).

Conditions: 101.33 kPa, Liquid, Hot wire method

C1=CCC=CC1 [1,4-cyclohexadiene]
Conditions | thermal conductivity [W/m/K] | thermal diffusivity [m2/s]
258.46 K | 0.1586 | –
258.67 K | 0.1584 | –
258.82 K | 0.1583 | –
259.36 K | – | 1.06e-07
259.93 K | – | 1.05e-07
260.35 K | – | 1.05e-07
264.86 K | 0.1564 | –
265.08 K | 0.1563 | –
265.23 K | 0.1562 | –
265.75 K | – | 1.04e-07
266.36 K | – | 1.04e-07
266.77 K | – | 1.04e-07
279.38 K | 0.1514 | –
279.6 K | 0.1512 | –
279.76 K | 0.1511 | –
280.29 K | – | 9.95e-08
280.9 K | – | 9.93e-08
281.33 K | – | 9.92e-08
296.2 K | 0.1455 | –
296.43 K | 0.1453 | –
296.6 K | 0.1452 | –
297.14 K | – | 9.5e-08
297.75 K | – | 9.45e-08
298.19 K | – | 9.45e-08
313.9 K | 0.1393 | –
314.13 K | 0.139 | –
314.31 K | 0.139 | –
314.86 K | – | 9.01e-08
315.48 K | – | 8.95e-08
315.93 K | – | 8.95e-08
328.51 K | 0.1343 | –
328.75 K | 0.1341 | –
328.93 K | 0.134 | –
329.48 K | – | 8.61e-08
330.11 K | – | 8.57e-08
330.58 K | – | 8.57e-08

C=CCCCCCC [oct-1-ene]
Conditions | thermal conductivity [W/m/K] | thermal diffusivity [m2/s]
259.69 K | 0.1354 | –
259.9 K | 0.1353 | –
260.06 K | 0.1353 | –
260.46 K | – | 9.04e-08
261.02 K | – | 9.07e-08
261.42 K | – | 9.09e-08
279.34 K | 0.1294 | –
279.57 K | 0.1294 | –
279.72 K | 0.129 | –
280.08 K | – | 8.39e-08
280.66 K | – | 8.48e-08
281.06 K | – | 8.49e-08
296.88 K | 0.124 | –
297.14 K | 0.124 | –
297.28 K | 0.124 | –
297.65 K | – | 7.98e-08
298.28 K | – | 8e-08
298.61 K | – | 8.02e-08
315.82 K | 0.1185 | –
316.07 K | 0.1186 | –
316.24 K | 0.1186 | –
316.57 K | – | 7.49e-08
317.19 K | – | 7.58e-08
317.61 K | – | 7.61e-08
326.44 K | 0.1155 | –
326.7 K | 0.1156 | –
326.87 K | 0.1156 | –
327.18 K | – | 7.24e-08
327.82 K | – | 7.35e-08
328.26 K | – | 7.38e-08

c1ccccc1 [benzene]
Conditions | thermal conductivity [W/m/K] | thermal diffusivity [m2/s]
281.18 K | 0.1464 | –
281.49 K | 0.1462 | –
281.76 K | 0.1461 | –
282.86 K | – | 9.74e-08
283.9 K | – | 9.74e-08
284.75 K | – | 9.72e-08
295.92 K | 0.1416 | –
296.25 K | 0.1414 | –
296.53 K | 0.1413 | –
297.67 K | – | 9.4e-08
298.78 K | – | 9.44e-08
299.68 K | – | 9.44e-08
301.25 K | 0.1399 | –
301.59 K | 0.1398 | –
301.87 K | 0.1396 | –
303.02 K | – | 9.29e-08
304.13 K | – | 9.31e-08
305.05 K | – | 9.29e-08
319.14 K | 0.134 | –
319.49 K | 0.1338 | –
319.79 K | 0.1337 | –
321.04 K | – | 8.97e-08
322.15 K | – | 8.92e-08
323.12 K | – | 8.9e-08

C=CCCC [1-pentene]
Conditions | thermal conductivity [W/m/K] | thermal diffusivity [m2/s]
257.36 K | 0.1284 | –
257.67 K | 0.1283 | –
257.93 K | 0.1283 | –
258.93 K | – | 9.28e-08
259.91 K | – | 9.28e-08
260.57 K | – | 9.25e-08
276.47 K | 0.121 | –
276.82 K | 0.1209 | –
277.07 K | 0.1203 | –
278.11 K | – | 8.65e-08
279.18 K | – | 8.7e-08
279.9 K | – | 8.66e-08
294.04 K | 0.1141 | –
294.42 K | 0.1139 | –
294.66 K | 0.1139 | –
295.8 K | – | 8.2e-08
296.87 K | – | 8.16e-08
297.67 K | – | 8.16e-08
301.07 K | 0.1113 | –
301.46 K | 0.1112 | –
301.75 K | 0.1111 | –
302.88 K | – | 7.99e-08
303.99 K | – | 7.96e-08
304.8 K | – | 7.96e-08

Cc1cc(C)cc(C)c1 [1,3,5-trimethylbenzene]
Conditions | thermal conductivity [W/m/K] | thermal diffusivity [m2/s]
258.66 K | 0.1434 | –
258.83 K | 0.1434 | –
258.95 K | 0.1433 | –
259.23 K | – | 9.77e-08
259.67 K | – | 9.83e-08
259.96 K | – | 9.82e-08
276.88 K | 0.14 | –
277.04 K | 0.1398 | –
277.16 K | 0.1398 | –
277.47 K | – | 9.49e-08
277.87 K | – | 9.44e-08
278.16 K | – | 9.45e-08
296.36 K | 0.1358 | –
296.53 K | 0.1356 | –
296.66 K | 0.1356 | –
296.93 K | – | 8.99e-08
297.35 K | – | 9.01e-08
297.65 K | – | 9.02e-08
313.44 K | 0.1319 | –
313.6 K | 0.1317 | –
313.73 K | 0.1317 | –
314.03 K | – | 8.71e-08
314.41 K | – | 8.63e-08
314.7 K | – | 8.63e-08
331.99 K | 0.1274 | –
332.16 K | 0.1274 | –
332.28 K | 0.1272 | –
332.56 K | – | 8.28e-08
332.96 K | – | 8.25e-08
333.24 K | – | 8.21e-08

C1=CC2C=CC1C2 [bicyclo[2.2.1]hepta-2,5-diene]
Conditions | thermal conductivity [W/m/K] | thermal diffusivity [m2/s]
258.57 K | 0.1485 | –
258.7 K | 0.1484 | –
258.8 K | 0.1484 | –
258.99 K | – | 1.08e-07
259.32 K | – | 1.08e-07
259.55 K | – | 1.09e-07
276.78 K | 0.1426 | –
276.89 K | 0.143 | –
276.97 K | 0.1429 | –
277.21 K | – | 1.02e-07
277.47 K | – | 1.02e-07
277.66 K | – | 1.01e-07
296.23 K | 0.1371 | –
296.35 K | 0.1369 | –
296.43 K | 0.1368 | –
296.61 K | – | 9.43e-08
296.89 K | – | 9.44e-08
297.1 K | – | 9.45e-08
313.27 K | 0.1315 | –
313.38 K | 0.1314 | –
313.46 K | 0.1313 | –
313.63 K | – | 8.85e-08
313.9 K | – | 8.86e-08
314.1 K | – | 8.86e-08
331.81 K | 0.1256 | –
331.91 K | 0.1255 | –
331.98 K | 0.1254 | –
332.15 K | – | 8.25e-08
332.4 K | – | 8.25e-08
332.57 K | – | 8.24e-08
